In brackets after ≈: the same amount, converted by molar mass. Like-named read-outs stand apart in the source and are kept apart here.
Tests used:
HIV-1 (HTLV-IIIB) = assay: Anti-retrovirus activity: inhibition of HIV-1-induced cytopathogenicity in MT-4 cells; format: cell-based; settings: for EC50: Human immunodeficiency virus 1, IIIB; for S.I. (Selectivity Index): Table 1, CC50/EC50, MT-4 cells
Text: The viruses used were moloney murine sarcoma virus (MSV), HIV-1 (strain HTLV-IIIB, kindly provided by R. C. Gallo and M. Popovic, National Cancer Institute, Bethesda, Md.), HIV-2 (strain LAV-2(ROD)), kindly provided by L. Montagnier (Pasteur Institute, Paris, France), simian immunodeficiency virus (SIV) (strain SIVMAC251, kindly provided by C. Bruck, RIT-Smith-Kline, Rixensart, Belgium).
(§1) In order to evaluate the inhibitory effects against retrovirus-induced cytopathogenicity in MT-4cells, said cells (5×10^5 cells/ml) were suspended in fresh culture medium and infected with HIV-1, HIV-2 or SIOV at 100 times the cell culture infective dose-50 (CCID50) per ml cell suspension (1 CCID50 being the dose infective for 50% of the cell cultures). Then, 100 μl of the infected cell suspension were transferred to microplate wells, mixed with 100 μl of the appropriate dilutions of the test compounds, and further incubated at 37° C. After 5 days, the number of viable cells was determined in a blood cell-counting chamber by trypan blue staining for both virus-infected and mock-infected cell cultures.

[1] = Cytotoxicity for mock-infected MT-4 cells; settings: human, mt-4 cells
Method: as §1

MT-4 cells = assay: Cytotoxicity for mock-infected MT-4 cells; settings: for cytotoxicity to MT-4 cells (in words): at 100 μg/ml
Method: as §1

HIV-1 = assay: Antiviral activity upon delayed addition to HIV-1-infected MT-4 cells; format: cell-based
Method: as §1
Mt-4 cells were suspended in culture medium, infected with HIV-1 and brought into microplate wells as described above. […] After 5 days, the number of viable cells was determined and the EC50 and CC50 values for the test compounds were defined as described in example 1.

MT-4 cell DNA synthesis = assay: Incorporation of radiolabeled precursors into MT-4 cell DNA; format: cell-based; settings: Homo sapiens, MT4, MT-4 cells, 20 to 24 hr
Text: (§2) The radiolabeled nucleosides [methyl-^3 H]dThd (specific radioactivity: 40 Ci/mmol), [5-^3 H]dUrd (specific radioactivity: 27 Ci/mmol), [5-^3 H]dCyc (specific radioactivity: 18.2 Ci/mmol) and the radiolabeled amino acid L-[4,5-^3 H]leucine (specific radioactivity: 52 Ci/mmol were derived from the Radiochemcial Centre (Amersham, England); [5-^3 H]Urd (specific radioactivity: 21 Ci/mmol) and [5-^3 H]Cyd (specific radioactivity: 21 Ci/mmol) and were obtained from Moravek Biochemicals Inc. (Brea, Calif.)
(§3) The incorporation of [methyl-^3 H]dThd, [5-^3 H]dUrd, [5-^3 H]dCyd, [5-^3 H]Urd, [5-^3 H]Cyd and L-[4,5-^3 H]1eu into TCA-insoluble MT-4 cell material was measured in wells of a 96-well microtiter plate (Falcon-3072, Becton-Dickinson, New Jersey). To each well were added 10^5 MT-4 cells, 0.25 μCi of the radiolabeled precursor and a given amount of test compound. The cells were allowed to proliferate for 20 to 24 hr at 37° C. in a humidified, CO2 -controlled atmosphere. At the end of this incubation period, the contents of the wells (200 μl) were brought onto 25-mm glass fiber filters (type A/E, Gelman Instrument Company, Ann Arbor, Mich.), and mounted on a Millipore 3025 sampling manifold apparatus. The filters were washed twice with 2 ml and 5 ml cold NaCl/Pi (phosphte-buffered saline), twice with 2 and 5 ml cold 10% trichloroacetic acid (TCA), twice with 5 and 7.5 ml cold 5% TCA, and twice with 1 ml cold ethanol.

MT-4 cell RNA synthesis = assay: Incorporation of radiolabeled precursors into MT-4 cell RNA; format: cell-based; settings: Homo sapiens, MT4, MT-4 cells, 20 to 24 hr
Text: as §2, §3

[2] = tested on: MT-4 cell protein synthesis; assay: Incorporation of radiolabeled leucine into MT-4 cell protein; format: cell-based; settings: Homo sapiens, MT4; MT-4 cells, 20 to 24 hr; read-out: IC50, L-[4,5-3H]leucine incorporation
Text: as §2, §3

[3] = tested on: MT-4 cell DNA, RNA or protein synthesis; assay: Incorporation of radiolabeled DNA, RNA or protein precursors into TCA-insoluble MT-4 cell material (summary in words); format: cell-based; settings: for inhibition of incorporation of dThd, dUrd, dCyd, Urd, Cyd or leucine: at 100 μg/ml
Text: as §2, §3

[4] = Partition coefficient (Pa) between 1-octanol and 10 mM potassium phosphate buffer; format: physicochemical; settings: 1-octanol / 10 mM potassium phosphate buffer, pH 7.5, 50 μM; for logD at 50 µM: room temperature
Method: Partition of the test compounds between 1-octanol (Merck, Darmstadt, Germany) and 10 mM potassium phosphate buffer, pH, 7.5 (Merck), was measured as described in Balzarini et al., Biochem, Biophys. Res. Commun. 158: 413-422 (1989). Briefly, a 50 μM concentration of the test compound in potassium phosphate buffer was thoroughly mixed with an equal volume of 1-octanol for 30 min at room temperature. Then, the mixture was further equilibrated at room temperature and UV absorption was measured for the aqueous and alcoholic liquid phases. The partition coefficient (Pa) was calculated as the ratio of the compound concentration present in the 1-octanol phase to the compound concentration present in the aqueous phase.

HIV-1 mutant strains = assay: Resistance of HIV-1 strains selected against compounds 5, 6 and 7; format: cell-based
HIV-2 strain (EHO) = assay: Activity against HIV-2 strain EHO; format: cell-based
[5] = MT4, read-out: 50% effective concentration (EC50)
[6] = read-out: IC50, [5-3H]dCyd incorporation
[7] = read-out: IC50, [5-3H]dUrd incorporation
[8] = read-out: IC50, [methyl-3H]dThd incorporation
[9] = read-out: IC50, [5-3H]Cyd incorporation
[10] = read-out: IC50, [5-3H]Urd incorporation

Compound | Selectivity Index (HIV-1 (HTLV-IIIB)) | EC50 (HIV-1 (HTLV-IIIB); MT4, 120 h) | EC50 (HIV-1 (HTLV-IIIB); [5]) | S.I. (Selectivity Index) (HIV-1 (HTLV-IIIB)) | CC50 at 120 h [1] | cytotoxicity to MT-4 cells (in words) (MT-4 cells) | IC50 (MT-4 cell DNA synthesis; [6]) | IC50 (MT-4 cell DNA synthesis; [7]) | IC50 (MT-4 cell DNA synthesis; [8]) | IC50 (MT-4 cell RNA synthesis; [9]) | IC50 (MT-4 cell RNA synthesis; [10]) | IC50 [2] | inhibition of incorporation of dThd, dUrd, dCyd, Urd, Cyd or leucine [3] | presence in the n-octanol phase compared to the aqueous phase [4] | logD at 50 µM [4] | amino acid change in reverse transcriptase of HIV-1 strains selected for resistance (HIV-1 mutant strains) | activity against HIV-2 strain (EHO) (HIV-2 strain (EHO)) | also measured
Cc1cn([C@@H]2O[C@H](CO[Si](C)(C)C(C)(C)C)[C@@]3(OS(=O)(=O)C=C3N)[C@H]2O[Si](C)(C)C(C)(C)C)c(=O)n(C)c1=O [Compound 6] | 4088 | 0.034 µg/mL (≈ 0.0563 µM) | 0.034 µg/mL (≈ 0.0563 µM) | 4088 | 139 µg/mL (≈ 230 µM) | not cytotoxic | > 100 µg/mL | > 100 µg/mL | > 100 µg/mL | > 100 µg/mL | > 100 µg/mL | > 100 µg/mL | did not markedly inhibit | more than 95% | > 1.3 | glutamic acid change at position 138 to lysine |  | decrease of antiviral activity on delayed addition (HIV-1; addition delayed by 17-24 hours, data not shown): 10 fold; antiviral activity on delayed addition (HIV-1; addition delayed by 41 to 48 hours): almost totally lost
CCn1c(=O)c(C)cn([C@@H]2O[C@H](CO[Si](C)(C)C(C)(C)C)[C@@]3(OS(=O)(=O)C=C3N)[C@H]2O[Si](C)(C)C(C)(C)C)c1=O [Compound 7, {1-[2', 5'-Bis-O-(tert-butyldimethylsily)-62 -D-ribofuranosyl]-3-N-ethyl-thymine}-3'-spiro-5"-{4"-amino-1", 2"-oxathiole-2",2"-dioxide}] | 1000 | 0.073 µg/mL (≈ 0.118 µM) | 0.073 µg/mL (≈ 0.118 µM) | 1000 | 73 µg/mL (≈ 118 µM) |  |  |  |  |  |  |  |  | more than 95% | > 1.3 | glutamic acid change at position 138 to lysine |  | 
CC(C)=CCn1c(=O)c(C)cn([C@@H]2O[C@H](CO[Si](C)(C)C(C)(C)C)[C@@]3(OS(=O)(=O)C=C3N)[C@H]2O[Si](C)(C)C(C)(C)C)c1=O [Compound 9, {1-[2', 5'-Bis-O-(tert-butyldimethylsilyl)-β-D-ribofuranosyl]-3-N-(3-methyl-2-butenyl)-thymine}-3'spiro-5"-{4"-amino-1", 2"-oxathiole-2", 2"-dioxide}] |  | 0.239 µg/mL (≈ 0.363 µM) |  | 252 | 73 µg/mL (≈ 111 µM) | not cytotoxic | > 100 µg/mL | > 100 µg/mL | > 100 µg/mL | > 100 µg/mL | > 100 µg/mL | > 100 µg/mL | did not markedly inhibit |  |  |  | inactive | 
CC(C)(C)[Si](C)(C)OC[C@H]1O[C@@H](n2ccc(N)nc2=O)[C@H](O[Si](C)(C)C(C)(C)C)[C@]12OS(=O)(=O)C=C2N [Compound 14, {1-[2', 5'-Bis-O-(tert-butyldimethylsilyl)-β-D-ribofuranosyl]-cytosine}-3'-spiro-5"-{4"-amino-1",2"-oxathiole-2",2"-dioxide}] |  | 0.439 µg/mL (≈ 0.764 µM) |  | ≥ 456 | ≥ 200 µg/mL | not cytotoxic | > 100 µg/mL | > 100 µg/mL | > 100 µg/mL | > 100 µg/mL | > 100 µg/mL | > 100 µg/mL | did not markedly inhibit | more than 95% | > 1.3 |  | inactive | 
Cc1cn([C@@H]2O[C@H](CO[Si](C)(C)C(C)(C)C)[C@@]3(OS(=O)(=O)C=C3N)[C@H]2O[Si](C)(C)C(C)(C)C)c(=O)nc1N [Compound 16, {1-[2', 5'-Bis-O-(tert-butyldimethylsilyl)-β-D-ribofuranosyl]-5-methyl-cytosine}-3'-spiro-5"-{4"-amino-1",2"-oxathiole-2",2"-dioxide}] |  | 0.072 µg/mL (≈ 0.122 µM) |  | 246 | 17.7 µg/mL (≈ 30.1 µM) | not cytotoxic | 14 µg/mL (≈ 23.8 µM) | 9.9 µg/mL (≈ 16.8 µM) | 14 µg/mL (≈ 23.8 µM) | 11 µg/mL (≈ 18.7 µM) | 8.9 µg/mL (≈ 15.1 µM) | 13 µg/mL (≈ 22.1 µM) | did not markedly inhibit |  |  |  | inactive | inhibition of MT-4 cell proliferation (in words) (MT-4 cells): inhibitory to MT-4 cell proliferation; inhibition of incorporation of precursors relative to inhibition of MT-4 cell proliferation ([3]; Table 2 discussion): equally inhibitory; preferential inhibition of incorporation of one precursor over the others ([3]; Table 2 discussion): neither
